The molecules below were run on human iTCR (assay: In vitro activation of human iTCR through Jurkat reporter cell line (JiNKT, GFP under NFkB promoter) with drug-loaded BWSTIM cells). Settings: BWSTIM loaded 4 hours, co-culture with JiNKT 18 to 24 hours; FIG. 1.
Assay type: cell-based
Procedure: In order to determine the human iTCR activation potential induced by the compounds described herein, a jurkat cell line (JiNKT) was transfected with the human iTCR, and GFP under the NFkB promoter (cell line licensed from the Medical University of Vienna). A BWS147 cell line (BWSTIM) was also transfected with CD80 and CD1d to act as the antigen-presenting cell.
(§1) DCD molecules or α-GalCer were both dissolved in DMSO at a 5 mg/mL stock solution. BWSTIM cells were loaded with DCD molecules or α-GalCer at varying concentrations for 4 hours at 37° C. at a concentration of 20 k cells/well in 200 μL of media in a u-bottom 96 well dish. BWSTIM cells were washed 2× with media, then incubated with JiNKT cells at a concentration of 80 k cells/well in a u-bottom 96 well dish. Cells were co-cultured for 18 to 24 hours. The percentage of cells expressing high levels of GFP was measured through flow cytometry (after gating out the mCD45+ BWSTIM cells).
A jurkat cell line (JiNKT) was transfected with the human iTCR, and GFP under the NFkB promoter. A BWS147 cell line (BWSTIM) was also transfected with CD80 and CD1d to act as the antigen-presenting cell. A mouse iNKT hybridoma cell line (DN3.2) was also used as the iNKT. […]
as §1, with “GVK” for “DCD”, “compounds” for “DCD molecules or α-GalCer at varying concentrations”, “for” for “for 18 to”, “cytometry. 1 μg/mL of molecule GVK1a, GVK1b, GVK1c, or GVK1f was incubated with BWSTIM+JiNKT, and compared to α-GalCer.” for “cytometry (after gating out the mCD45+ BWSTIM cells).”
For `CCCCCCCCCCCCCC[C@@H](O)[C@@H](O)[C@H](COC1OC(CO)C(O)C(O)C1O)NC(=O)CCCCCCCCCOC1CCS(=O)(=O)CC1` (stereo partly shown) [DCD-138], the “EC50 of the dose response based on percentage GFP+ cells, compared to α-GalCer” value was “lower EC50s compared to α-GalCer”.
In the case of `CCCCCCCCCCCCCC[C@@H](O)[C@@H](O)[C@H](COC1OC(CO)C(O)C(O)C1O)NC(=O)CCCCCCCCCCCCCCCCCCCCCCC12CC(F)(C1)C2` (stereo partly shown) [DCD-148], the “EC50 of the dose response based on percentage GFP+ cells, compared to α-GalCer” value is reported as “lower EC50s compared to α-GalCer”.
For `CCCCCCCCCCCCCC[C@@H](O)[C@@H](O)[C@H](COC1OC(CO)C(O)C(O)C1O)NC(=O)CCCCCCCCCCC1CCOC1` (stereo partly shown) [DCD-121], the “EC50 of the dose response based on percentage GFP+ cells, compared to α-GalCer” value was “lower EC50s compared to α-GalCer”.
With `CCCCCCCCCCCCCC[C@@H](O)[C@@H](O)[C@H](COC1OC(CO)C(O)C(O)C1O)NC(=O)CCCCCCCCCCCCCCCCCCCCCCC1COC1` (stereo partly shown) [DCD-149] the “EC50 of the dose response based on percentage GFP+ cells, compared to α-GalCer” value was “lower EC50s compared to α-GalCer”.
With `CCCCCCCCCCCCCC[C@@H](O)[C@@H](O)[C@H](COC1OC(CO)C(O)C(O)C1O)NC(=O)CCCCCCCCCCCC12CC(F)(C1)C2` (stereo partly shown) [DCD-113] the “EC50 of the dose response based on percentage GFP+ cells, compared to α-GalCer” value was “lower EC50s compared to α-GalCer”.
With `CCCCCCCCCCCCCC[C@@H](O)[C@@H](O)[C@H](COC1OC(CO)C(O)C(O)C1O)NC(=O)CCCCCCCCCCC1CCN(C(=O)OC(C)(C)C)C1` (stereo partly shown) [DCD-128] the “EC50 of the dose response based on percentage GFP+ cells, compared to α-GalCer” value was “lower EC50s compared to α-GalCer”.
With `CCCCCCCCCCCCCC[C@@H](O)[C@@H](O)[C@H](COC1OC(CO)C(O)C(O)C1O)NC(=O)CCCCCCCCCCC1CN(C(=O)OC(C)(C)C)C1` (stereo partly shown) [DCD-125] the “EC50 of the dose response based on percentage GFP+ cells, compared to α-GalCer” value was “lower EC50s compared to α-GalCer”.
With `CCCCCCCCCCCCCC[C@@H](O)[C@@H](O)[C@H](COC1OC(CO)C(O)C(O)C1O)NC(=O)CCCCCCCCCCS(=O)(=O)C(C)C` (stereo partly shown) [DCD-137] the “EC50 of the dose response based on percentage GFP+ cells, compared to α-GalCer” value was “lower EC50s compared to α-GalCer”.
For `CCCCCCCCCCCCCC[C@@H](O)[C@@H](O)[C@H](COC1OC(CO)C(O)C(O)C1O)NC(=O)CCCCCCCCCCC1CCS(=O)(=O)CC1` (stereo partly shown) [DCD-127], the “EC50 of the dose response based on percentage GFP+ cells, compared to α-GalCer” value was “lower EC50s compared to α-GalCer”.
`CCCCCCCCCCCCCC[C@@H](O)[C@@H](O)[C@H](COC1OC(CO)C(O)C(O)C1O)NC(=O)CCCCCCCCCCN1CCS(=O)(=O)CC1` (stereo partly shown) [DCD-136] was tested, and the “EC50 of the dose response based on percentage GFP+ cells, compared to α-GalCer” value was “lower EC50s compared to α-GalCer”.
For `CCCCCCCCCCCCCC[C@@H](O)[C@@H](O)[C@H](COC1OC(CO)C(O)C(O)C1O)NC(=O)CCCCCCCOCCC1CCOCC1` (stereo partly shown) [DCD-140], the “EC50 of the dose response based on percentage GFP+ cells, compared to α-GalCer” value was “lower EC50s compared to α-GalCer”.
In the case of `CCCCCCCCCCCCCC[C@@H](O)[C@@H](O)[C@H](COC1OC(CO)C(O)C(O)C1O)NC(=O)CCCCCCCCCCC1COC1` (stereo partly shown) [DCD-118], the “EC50 of the dose response based on percentage GFP+ cells, compared to α-GalCer” value is reported as “lower EC50s compared to α-GalCer”.
For `CCCCCCCCCCCCCC[C@@H](O)[C@@H](O)[C@H](COC1OC(CO)C(O)C(O)C1O)NC(=O)CCCCCCCCCCCCCCCCCCCCCC1COC1` (stereo partly shown) [DCD-150], the “EC50 of the dose response based on percentage GFP+ cells, compared to α-GalCer” value was “lower EC50s compared to α-GalCer”.
`CCCCCCCCCCCCCC[C@@H](O)[C@@H](O)[C@H](COC1OC(CO)C(O)C(O)C1O)NC(=O)CCCCCCCCCCC1CCOCC1` (stereo partly shown) [DCD-122] was tested, and the “EC50 of the dose response based on percentage GFP+ cells, compared to α-GalCer” value was “lower EC50s compared to α-GalCer”.
With `CCCCCCCCCCCCCC[C@@H](O)[C@@H](O)[C@H](COC1OC(CO)C(O)C(O)C1O)NC(=O)CCCCCCOCCCC1CCOCC1` (stereo partly shown) [DCD-143] the “EC50 of the dose response based on percentage GFP+ cells, compared to α-GalCer” value was “lower EC50s compared to α-GalCer”.
For `CCCCCCCCCCCCCC[C@@H](O)[C@@H](O)[C@H](COC1OC(CO)C(O)C(O)C1O)NC(=O)CCCCCCCCCCC12C3C4C5C3C1C5C42` (stereo partly shown) [DCD-114], the “EC50 of the dose response based on percentage GFP+ cells, compared to α-GalCer” value was “lower EC50s compared to α-GalCer”.
With `CCCCCCCCCCCCCC[C@@H](O)[C@@H](O)[C@H](COC1OC(CO)C(O)C(O)C1O)NC(=O)CCCCCCCCCCN1CCSCC1.Cl` (stereo partly shown) [DCD-133] the “EC50 of the dose response based on percentage GFP+ cells, compared to α-GalCer” value was “lower EC50s compared to α-GalCer”.
For `CCCCCCCCCCCCCC[C@@H](O)[C@@H](O)[C@H](COC1OC(CO)C(O)C(O)C1O)NC(=O)CCCCCCCCCCN1CCOCC1.Cl` (stereo partly shown) [DCD-130], the “EC50 of the dose response based on percentage GFP+ cells, compared to α-GalCer” value was “lower EC50s compared to α-GalCer”.
`CCCCCCCCCCCCCC[C@@H](O)[C@@H](O)[C@H](COC1OC(CO)C(O)C(O)C1O)NC(=O)CCCCCCCCCCCCCCCCCCCCCC12CC(F)(C1)C2` (stereo partly shown) [DCD-151] was tested, and the “EC50 of the dose response based on percentage GFP+ cells, compared to α-GalCer” value was “lower EC50s compared to α-GalCer”.
`CCCCCCCCCCCCCC[C@@H](O)[C@@H](O)[C@H](COC1OC(CO)C(O)C(O)C1O)NC(=O)CCCCCCCCOCC1CCOCC1` (stereo partly shown) [DCD-141] was tested, and the “EC50 of the dose response based on percentage GFP+ cells, compared to α-GalCer” value was “lower EC50s compared to α-GalCer”.
In the case of `CCCCCCCCCCCCCC[C@@H](O)[C@@H](O)[C@H](COC1OC(CO)C(O)C(O)C1O)NC(=O)CCCCCCCCCOC1CCOCC1` (stereo partly shown) [DCD-139], the “EC50 of the dose response based on percentage GFP+ cells, compared to α-GalCer” value is reported as “lower EC50s compared to α-GalCer”.
`CCCCCCCCCCCCCC[C@@H](O)[C@@H](O)[C@H](COC1OC(CO)C(O)C(O)C1O)NC(=O)CCCCCCCCCCCC12C3C4C5C3C1C5C42` (stereo partly shown) [DCD-103] was tested, and the “EC50 of the dose response based on percentage GFP+ cells, compared to α-GalCer” value was “lower EC50s compared to α-GalCer”.
`CCCCCCCCCCCCCC[C@@H](O)[C@@H](O)[C@H](COC1OC(CO)C(O)C(O)C1O)NC(=O)CCCCCCCCCCC1(C)COC1` (stereo partly shown) [DCD-119] was tested, and the “EC50 of the dose response based on percentage GFP+ cells, compared to α-GalCer” value was “lower EC50s compared to α-GalCer”.
With `CCCCCCCCCCCCCC[C@@H](O)[C@@H](O)[C@H](COC1OC(CO)C(O)C(O)C1O)NC(=O)CCCCCOCCCCC1CCOCC1` (stereo partly shown) [DCD-144] the “EC50 of the dose response based on percentage GFP+ cells, compared to α-GalCer” value was “lower EC50s compared to α-GalCer”.

Same assay, conditions: ranking among tested compounds, at the lowest concentration
`CCCCCCCCCCCCCC[C@@H](O)[C@@H](O)[C@H](COC1OC(CO)C(O)C(O)C1O)NC(=O)CCCCCCCCCCC1CCS(=O)(=O)CC1` (stereo partly shown) [DCD-127] was tested, and the “% GFP+” value was “highest % GFP+ at the lowest concentration”.

Reference: patent US12655171B2, “Compounds for activating invariant natural killer T-cells and methods of use in eliminating inflammatory senescent cells” (Deciduous Therapeutics, Inc., priority 2021, dated 2026)
